Where “and” joins values, the source holds several entries; their conditions need not be identical. Equal values may be shown once. Read-outs that look alike come from different tables or passages of the source.
Columns and labels:
hMAO-B = biological target: T1, hMAO-B (Homo sapiens, UniProt P27338); experiment: In vitro MAO-B enzyme inhibitory activity (recombinant human enzyme, benzylamine substrate); type: biochemical; conditions: for IC50: recombinant human MAO-B, mean ± SD of 3 independent experiments in triplicate; for SI: SI = IC50 (hMAO-A)/IC50 (hMAO-B) ratio
T1 construct: purchased Sigma-Aldrich
T1 sequence (P27338 1-520): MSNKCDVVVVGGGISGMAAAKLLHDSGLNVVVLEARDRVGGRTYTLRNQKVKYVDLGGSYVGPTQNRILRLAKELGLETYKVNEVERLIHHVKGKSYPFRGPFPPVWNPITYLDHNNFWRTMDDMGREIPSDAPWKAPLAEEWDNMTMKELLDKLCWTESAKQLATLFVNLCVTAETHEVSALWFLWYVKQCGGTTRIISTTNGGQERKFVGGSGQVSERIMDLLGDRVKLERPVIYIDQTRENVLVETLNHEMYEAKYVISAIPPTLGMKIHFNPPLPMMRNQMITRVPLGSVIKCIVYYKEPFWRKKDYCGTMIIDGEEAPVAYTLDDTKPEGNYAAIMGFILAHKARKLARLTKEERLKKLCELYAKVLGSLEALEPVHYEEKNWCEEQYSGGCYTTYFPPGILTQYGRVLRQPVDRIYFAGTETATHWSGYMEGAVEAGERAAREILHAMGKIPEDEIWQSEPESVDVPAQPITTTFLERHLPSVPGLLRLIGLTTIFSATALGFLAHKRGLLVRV
Protocol: (§1) The Novaroli et al. method was used with minor modifications to study the biological activities of MAO-A and MAO-B in vitro. A preincubation step was carried out at 37 °C for 10 min, in which 140 μL of 0.1 M potassium phosphate-buffered solution at pH 7.4, 8 μL of 0.75 mM kynuramine, and 2 μL of a dimethyl sulfoxide (DMSO) solution (i.e., final DMSO and inhibitor concentrations of 1% (v/v) and 0–1 μM, respectively). Diluted human recombinant enzyme (50 μL) was added to achieve the final protein concentration, and the mixture was incubated at 37 °C. After 20 min, the reaction was stopped with the addition of 75 μL of 2 M NaOH. […] Each measurement was repeated three times. DMSO was used as control. IC50 values were then calculated. […] The determination of IC50 values for inhibition of MAO enzymes involved the use of recombinant human MAO-A and MAO-B enzymes (purchased from Sigma-Aldrich). The initial rates of oxidation were measured in a 1 mL cuvette containing 50 mM of sodium phosphate (pH 7.4) at 25 °C, as described previously, except for the substrate concentrations and assay times. […] Meanwhile, the assessment of MAO-B activity employed 0.6 mM of benzylamine as the substrate, with absorbance changes measured at 250 nm for 10 min. Substrate addition initiated the reaction, and the reaction rates were quantified as alterations in absorbance per minute.

hMAO-A = biological target: T2, hMAO-A (Homo sapiens, UniProt P21397); experiment: In vitro MAO-A enzyme inhibitory activity (recombinant human enzyme, kynuramine substrate); type: biochemical
T2 construct: purchased Sigma-Aldrich
T2 sequence (P21397 1-527): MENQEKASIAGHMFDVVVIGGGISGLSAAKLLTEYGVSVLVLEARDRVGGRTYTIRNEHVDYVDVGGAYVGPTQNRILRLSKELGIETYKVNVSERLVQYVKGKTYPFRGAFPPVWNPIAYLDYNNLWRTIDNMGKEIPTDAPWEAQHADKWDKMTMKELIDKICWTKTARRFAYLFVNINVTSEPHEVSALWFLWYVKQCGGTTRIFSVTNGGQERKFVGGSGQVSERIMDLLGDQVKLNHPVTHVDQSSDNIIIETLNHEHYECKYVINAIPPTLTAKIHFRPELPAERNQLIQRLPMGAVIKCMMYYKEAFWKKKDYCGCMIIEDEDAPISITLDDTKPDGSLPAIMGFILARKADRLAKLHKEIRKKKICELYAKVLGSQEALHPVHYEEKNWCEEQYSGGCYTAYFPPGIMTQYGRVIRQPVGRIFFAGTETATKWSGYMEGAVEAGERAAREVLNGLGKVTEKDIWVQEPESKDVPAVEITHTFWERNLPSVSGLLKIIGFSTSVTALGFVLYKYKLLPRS
Protocol: as §1

[1] = recombinant human MAO-A, mean ± SD of 3 independent experiments in triplicate, read-out: IC50 hMAO-A

Structure (SMILES) | IC50 (hMAO-B) | SI (hMAO-B) | IC50 (hMAO-A) | IC50 (hMAO-A; [1])
C(#CC1(N2CCCCC2)CCCCC1)c1ccccc1 [4a, 1-(1-(phenylethynyl)cyclohexyl)piperidine] | 274.2 ± 2.68 nM |  |  | 
C(#CC1(N2CCCC2c2cccnc2)CCCCC1)c1ccccc1 (stereo not drawn) [4aa, 3-(1-(1-(Phenylethynyl)cyclohexyl)pyrrolidin-2-yl)pyridine] | 168 ± 2.12 nM | 4.70 | 791.3 ± 6.72 nM | 
CC(C)(O)C#CC1(N2CCN(c3ccccc3)CC2)CCCCC1 [4ab, 2-Methyl-4-(1-(4-phenylpiperazin-1-yl)cyclohexyl)but-3-yn-2-ol] | 167 ± 2.01 nM | 5.06 |  | 845.8 ± 6.83 nM
C(#CC1(NCc2ccccc2)CCCCC1)c1ccccc1 [4ac, N-Benzyl-1-(phenylethynyl)cyclohexanamine] | 278.4 ± 2.71 nM |  |  | 
CC(C)(O)C#CC1(NCc2ccc(F)cc2)CCCCC1 [4ad, 4-(1-((4-Fluorobenzyl)amino)cyclohexyl)-2-methylbut-3-yn-2-ol] | 161 ± 1.97 nM | 4.74 |  | 765.6 ± 6.42 nM
C(#CC1(NCc2ccccc2)CC2CCC1C2)c1ccccc1 (stereo not drawn) [4ae, N-Benzyl-2-(phenylethynyl)bicyclo[2.2.1]heptan-2-amine] | 321.6 ± 2.94 nM |  |  | 
C(#CC1(N2CCCC2)CCCC1)c1ccccc1 [4b, 1-(1-(phenylethynyl)cyclopentyl)pyrrolidine] | 182 ± 2.21 nM |  |  | 
C(#CC1(N2CCCC2)CCCCCC1)c1ccccc1 [4c, 1-(1-(phenylethynyl)cycloheptyl)pyrrolidine] | 183 ± 2.12 nM |  |  | 
C(#CC1(N2CCOCC2)CCCCC1)c1ccccc1 [4d, 4-(1-(Phenylethynyl)cyclohexyl)morpholine] | 174 ± 2.08 nM |  |  | 
CCCN(CCC)C1(C#Cc2ccccc2)CCCCC1 [4e, 1-(phenylethynyl)-N, N-dipropylcyclohexan-1-amine] | 286.1 ± 2.74 nM |  |  | 
Clc1ccc(C#CC2(N3CCCCC3)CCCCC2)cc1 [4f, 1-(1-((4-chlorophenyl)ethynyl)cyclohexyl)piperidine] | 175 ± 2.11 nM |  |  | 
Cc1ccc(C#CC2(N3CCCC3)CCCCC2)cc1 [4g, 1-(1-(p–tolylethynyl)cyclohexyl)pyrrolidine] | 189 ± 2.24 nM |  |  | 
Clc1ccc(C#CC2(N3CCCC3)CCCCC2)cc1 [4h, 1-(1-((4-chlorophenyl)ethynyl)cyclohexyl)pyrrolidine] | 172 ± 2.1 nM |  |  | 
COc1ccc(C#CC2(N3CCCCC3)CCCCC2)cc1 [4i, 1-(1-((4-methoxyphenyl)ethynyl)cyclohexyl)piperidine] | 172 ± 2.1 nM |  |  | 
C(#CC1(N2CCCC2c2cccnc2)CCCC1)c1ccccc1 (stereo not drawn) [4j, 3-(1-(1-(Phenylethynyl)cyclopentyl)pyrrolidin-2-yl)pyridine] | 165 ± 2.03 nM | 5.23 |  | 861.5 ± 6.97 nM
CC(C)(O)C#CC1(N2CCCC2c2cccnc2)CCCCC1 (stereo not drawn) [4k, 2-methyl-4-(1-(2-(pyridin-3-yl)pyrrolidin-1-yl)cyclohexyl)but-3-yn-2-ol] | 152 ± 1.95 nM | 5.24 |  | 797.1 ± 6.73 nM
C(#CC1(NC2CCCCC2)CCCCC1)c1ccccc1 [4l, N-cyclohexyl-1-(phenylethynyl)cyclohexan-1-amine] | 294 ± 3.06 nM |  |  | 
COc1ccc(CNC2(C#Cc3ccccc3)CCCCC2)cc1 [4m, N-(4-methoxybenzyl)-1-(phenylethynyl)cyclohexanamine] | 165 ± 2.01 nM | 4.86 |  | 802.9 ± 7.03 nM
C(#CC1(N2CCCCC2)CCCC1)c1ccccc1 [4n, 1-(1-(phenylethynyl)cyclopentyl)piperidine] | 272.3 ± 2.54 nM |  |  | 
CCC(C)(C#Cc1ccccc1)N1CCCC1 (stereo not drawn) [4o, 1-(3-Methyl-1-phenylpent-1-yn-3-yl)pyrrolidine] | 312 ± 3.17 nM |  |  | 
CCCC(C)(C#Cc1ccccc1)N1CCCC1 (stereo not drawn) [4p, 1-(3-Methyl-1-phenylhex-1-yn-3-yl)pyrrolidine] | 203 ± 2.24 nM |  |  | 
CCC(C#Cc1ccccc1)(CC)N1CCCC1 [4q, 1-(3-Ethyl-1-phenylpent-1-yn-3-yl)pyrrolidine] | 317 ± 3.24 nM |  |  | 
CCCCCCC(C#Cc1ccccc1)(CCC)N1CCCC1 (stereo not drawn) [4r, 1-(4-(Phenylethynyl)decan-4-yl)pyrrolidine] | 323.4 ± 3.21 nM |  |  | 
CC1CCCCC1(C#Cc1ccccc1)N1CCCC1 (stereo not drawn) [4s, 1-(2-Methyl-1-(phenylethynyl)cyclohexyl)pyrrolidine] | 281.3 ± 2.75 nM |  |  | 
CC1CCCC(C#Cc2ccccc2)(N2CCCC2)C1 (stereo not drawn) [4t, 1-(3-Methyl-1-(phenylethynyl)cyclohexyl)pyrrolidine] | 192 ± 2.41 nM |  |  | 
C(#CC1(N2CCCCC2)CC2CCC1C2)c1ccccc1 (stereo not drawn) [4u, 1-(2-(Phenylethynyl)bicyclo[2.2.1]heptan-2-yl)piperidine] | 346 nM and 277 nM |  |  | 
Cc1cccc(C#CC2(N3CCCCC3)CCCCC2)c1 [4w, 1-(1-(m-Tolylethynyl)cyclohexyl)piperidine] | 281.9 ± 2.72 nM |  |  | 
COc1ccc(C#CC2(N3CCCCC3)CCCCC2)c(C)c1 [4x, 1-(1-((4-Methoxy-2-methylphenyl)ethynyl)cyclohexyl)piperidine] | 267.4 ± 2.52 nM |  |  | 
Brc1ccccc1C#CC1(N2CCCCC2)CCCCC1 [4y, 1-(1-((2-Bromophenyl)ethynyl)cyclohexyl)piperidine] | 277.4 ± 2.71 nM |  |  | 
CCOC(=O)C1CCN(C2(C#Cc3ccccc3)CCCCC2)CC1 [4z, Ethyl 1-(1-(phenylethynyl)cyclohexyl)piperidine-4-carboxylate] | 213 ± 2.24 nM |  |  | 

Reference: PMC11174103 (Molecules, 2024)
